Measured values: US12012467B2, “Small molecule DCN1 inhibitors and therapeutic methods using the same” (THE REGENTS OF THE UNIVERSITY OF MICHIGAN, priority 2017, dated 2024)
Entries after “also recorded” stand apart in the source; their conditions may differ. Counter-ions that a name gives are not always drawn. Like-named read-outs stand apart in the source and are kept apart here. Values belong to the molecule of their own block, whether it stands above or below them. Square brackets hold non-standard residues; d marks the D form. Peptide text beside a SMILES is read from it. * marks the point of attachment. Ala(6-iPr-benzothiazol-2-yl) = CC(C)c1ccc2nc(C[C@H](N)C(=O)O)sc2c1; 2Nal = N[C@@H](Cc1ccc2ccccc2c1)C(=O)O; Lac = C[C@H](O)C(=O)O; Propionyl = CCC(=O)*

Key:
[1] = tested on: NRF2; test: Western blotting of NRF2 and NRF2-regulated proteins in THLE2 liver cell line; assay type: cell-based; settings: for accumulation of NRF2 and NQ01 protein / abundance of NRF2 protein (cullin 3 substrate): THLE2 liver cell line; for accumulation of NRF2 and NQ01 protein: 10 μM, different time points; for abundance of NRF2 protein (cullin 3 substrate): dose-range, 24 h, western blotting
Procedure: (§1) A key function of cullin neddylation is to control E3 ubiquitin ligase activity of the cullin complex, which in turn regulates protein turnover in cells. DI-591 (Example 58) was evaluated for its effect on neddylation of 5 different cullins in the THLE2 liver cell line with the data shown in FIG. 1. Immortalized THLE2 liver cell line was treated by a dose-range of DCN1 inhibitor DI-591 or a dose-range of MLN4924 for 24 h. The protein levels of neddylated- and un-neddylated-cullin family proteins and several well-known substrates of cullins were examined by western blotting analysis. GAPDH was used as a loading control. […] Immunohistochemical data confirmed the increased NRF2 protein by Example 58 in liver cells.
NRF2 is a transcriptional factor and a master regulator of antioxidant responses, regulating numerous detoxifying and antioxidant genes, such as the phase II detoxification enzymes heme oxygenase (HO1) and NAD(P)H:quinone oxidoreductase-1 (NQ01) (36). DI-591 (Example 58) was compared to dimethyl fumarate (DMF) for their effect on NRF2 and NQ01 protein levels in the THLE2 liver cell line with DI-591DD included as a control with the data shown in FIG. 3. THLE2 liver cell line was treated by DI-591 at 10 μM, DI-591DD at 10 μM or DMF at 10 μM for different time points.
(§2) Immortalized liver THLE2 (ATCC® CRL-2706™) cell lines was purchased from the ATCC (Rockville, MD). The cell line was maintained in BEGM Bronchial Epithelial Cell Growth Medium from Lonza/Clonetics Corporation (CC3170, Walkersville, MD) supplemented with 10% FBS and pen-strep at 37° C. in a humidified incubator with 5% CO2. Esophageal cancer KYSE140 cell line (ACC 348) was purchased from DSMZ (Braunschweig, Germany). The cell line was maintained RPMI1640 supplemented with 10% FBS and pen-strep at 37° C. in a humidified incubator with 5% CO2.
(§3) Treated cells were lysed by RIPA buffer supplemented with protease inhibitor. The expression level of indicated proteins was examined by western blotting analysis. GAPDH was used as a loading control. Antibodies were purchased: Cullin 1 (sc-11384), Cullin2 (sc-10781), Cullin5 (sc-13014) and Cullin7 (sc-134565) from Santa Cruz Biotech. (Santa Cruz, CA); Cullin 4A (PA5-14542), Cullin 4B (PA5-35239), Cullin9 (PA5-20277), DCN2 (DCUN1D2, PA5-31607) and DCN3 (DCUN1D3, PA5-44000) from ThermoFisher Scientific (Wayne, MI); Cullin 3 (2759), NRF2 (12721), HO-1 (70081), NQ01 (3187), Cyclin E (4129), Bim (2819), Keap1 (8047) and UBC12 (4913) from Cell Signaling Technology (Boston, MA); DCN1 (GWB-E3D700) from GenWay Biotech (San Diego, CA). Results are representative of three independent experiments.

[2] = tested on: Cyclin E, BimEL, CDT1; test: Western blotting of Cul-1 and Cul-4A substrates in THLE2 liver cell line; assay type: cell-based; settings: dose-range, 24 h
Procedure: as §1, §2, §3

[3] = tested on: mRNA of NRF2, NQ01 and HO-1; test: qRT-PCR of NRF2 and NRF2-regulated genes in THLE2 liver cell line; assay type: cell-based; settings: 10 μM, different time points
Source text: FIG. 4 provides qRT-PCR analysis of mRNA levels of NRF2 and NRF2-regulated genes in the THLE2 liver cell line. […] The relative mRNA levels of NRF2, NQ01 and HO-1 were examined by quantitative real-time RT-PCR assay.

[4] = tested on: neddylation of cullin 3; test: Western blotting of neddylated and un-neddylated cullin 3 in THLE2 liver cell line; assay type: cell-based
Procedure: as §1
(§4) DI-591 (Example 58) was further compared to MLN4924 for their ability to inhibit neddylation of cullin 1 and cullin 3 in the THLE2 liver cell line with the data shown in FIG. 2. THLE2 liver cell line was treated by DI-591 at 10 μM or MLN4924 at 0.3 μM for 5 minutes (5m), 30 minutes (30 m), 2 hours (2h) and 24 hours (24h). […] In comparison, MLN4924 inhibits the neddylation of both cullin 1 and 3.
as §2
(§5) Treated cells were lysed by RIPA buffer supplemented with protease inhibitor. The expression level of indicated proteins was examined by western blotting analysis. GAPDH was used as a loading control. Antibodies were purchased: Cullin 1 (sc-11384), Cullin2 (sc-10781), Cullin5 (sc-13014) and Cullin7 (sc-134565) from Santa Cruz Biotech. […]

[5] = tested on: neddylation of cullin 1; test: Western blotting of neddylated and un-neddylated cullin 1 in THLE2 liver cell line; assay type: cell-based; settings: DI-591 at 10 μM or MLN4924 at 0.3 μM, 5 minutes to 24 hours
Procedure: as §4, §2, §5

[6] = target: DCN1 (Homo sapiens (Human), UniProt Q96GG9); test: Competitive FP binding assay
Sequence of DCN1 (Q96GG9 58-259): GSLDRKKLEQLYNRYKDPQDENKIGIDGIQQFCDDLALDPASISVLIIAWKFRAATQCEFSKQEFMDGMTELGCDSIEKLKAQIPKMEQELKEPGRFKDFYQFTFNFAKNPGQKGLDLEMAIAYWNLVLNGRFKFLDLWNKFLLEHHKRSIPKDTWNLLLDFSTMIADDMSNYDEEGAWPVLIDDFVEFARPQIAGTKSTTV
Outline: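 FP competition with DCN1 in 100 mM phosphate pH 6.5, 0.02% Tween-20, 2% DMSO, probe 5 nM final. Equilibrated 30 min at room temperature with shaking. DCN1 was His6-tagged (uncleaved), expressed in E. coli Rosetta2 and purified by Ni-NTA and gel filtration.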

[7] = THLE2, DI-591 at 10 μM or MLN4924 at 0.3 μM, 5 minutes to 24 hours
[8] = read-out: Binding affinity to DCN1 (IC50 (nM))
[9] = bounds given in μM, read-out: Binding affinity to DCN1 (IC50)

Structure (SMILES): CCC(=O)N[C@@H](Cc1nc2ccc(C(C)C)cc2s1)C(=O)N[C@H](CNC(=O)CCN1CCOCC1)C1CCCCC1 [Example 58, (S)—N—((S)-1-cyclohexyl-2-(3-morpholinopropanamido)ethyl)-3-(6-isopropylbenzo[d]thiazol-2-yl)-2-propionamidopropanamide]
accumulation of NRF2 and NQ01 protein [1]: stimulate the accumulation
abundance of NRF2 protein (cullin 3 substrate) [1]: induces upregulation; also recorded: selectively increased
NRF2 protein, immunohistochemical data ([1]; liver cells): increased
protein levels of Cyclin E, BimEL and CDT1 (substrates of Cul-1 and Cul-4A) [2]: no or minimal effect
mRNA level of NRF2 [3]: no effect
mRNA levels of NQ01 and HO1 (NRF2-regulated genes) [3]: upregulates; also recorded: clearly increases
neddylation of cullin 3 [4, 7]: rapidly inhibits
neddylation of cullin 3 ([4]; THLE2 liver cell line, dose-range, 24 h): selectively and dose-dependently inhibits
neddylation of cullin 1 [5]: little effect

Structure (SMILES): CCC(=O)N[C@H](Cc1nc2ccc(C(C)C)cc2s1)C(=O)N[C@@H](CNC(=O)CCN1CCOCC1)C1CCCCC1 [Example 123, (R)—N—((R)-1-cyclohexyl-2-(3-morpholinopropanamido)ethyl)-3-(6-isopropylbenzo[d]thiazol-2-yl)-2-propionamidopropanamide]
accumulation of NRF2 and NQ01 protein [1]: not
abundance of NRF2 protein (cullin 3 substrate) [1]: no effect
protein levels of Cyclin E, BimEL and CDT1 (substrates of Cul-1 and Cul-4A) [2]: no effect
mRNA level of NRF2 [3]: no effect
mRNA levels of NQ01 and HO1 (NRF2-regulated genes) [3]: not

Structure (SMILES): COC(=O)/C=C/C(=O)OC [Dimethyl fumarate, dimethyl fumarate, reference compound]
accumulation of NRF2 and NQ01 protein [1]: stimulates the accumulation
accumulation of NRF2 and NQ01 protein ([1]; listed as dimethyl fumarate): stimulate the accumulation

Structure (SMILES): NS(=O)(=O)OC[C@@H]1C[C@@H](n2ccc3c(N[C@H]4CCc5ccccc54)ncnc32)C[C@@H]1O [MLN4924, reference compound]
abundance of NRF2 protein (cullin 3 substrate) [1]: induces accumulation
protein levels of Cyclin E, BimEL and CDT1 (substrates of Cul-1 and Cul-4A) [2]: induces accumulation
neddylation of cullin 3 [4, 7]: inhibits
neddylation of cullin 1 [5]: inhibits

Structure (SMILES): CCC(=O)N[C@@H](Cc1nc2ccc(C(C)C)cc2s1)C(=O)N[C@H](C(=O)N[C@@H](CCCCN)C(=O)N[C@@H](CC(C)C)C(N)=O)[C@@H](C)CC [Example 273] (Propionyl-[Ala(6-iPr-benzothiazol-2-yl)]IKL-NH2)
IC50 [6, 8]: 51 nM

Structure (SMILES): CCC(=O)N[C@H](CNC(=O)C1(N)CCCCCCC1)Cc1nc2ccc(C(C)C)cc2s1 [Example 116]
IC50 [6, 8]: 2200 nM

Structure (SMILES): CCC(=O)N[C@@H](Cc1ccc2ccccc2c1)C(=O)N[C@H](C(=O)N[C@@H](CN(C)C)C(=O)NC(c1ccc(F)cc1)c1ccc(F)cc1)C1CCCC1 [Example 139]
IC50 [6, 9]: > 10000 nM

Structure (SMILES): CCC(=O)N[C@@H](Cc1nc(C)c(-c2cccc(Cl)c2)s1)C(=O)N[C@H](CN)C1CCCCC1 [Example 107]
IC50 [6, 8]: 704 nM

Structure (SMILES): CCC(=O)N[C@@H](Cc1nc(C)c(-c2ccccc2Cl)s1)C(=O)N[C@H](CN)Cc1ccccc1 [Example 104]
IC50 [6, 9]: > 10000 nM

Structure (SMILES): CCC(=O)N[C@@H](Cc1nc2ccc(C(C)C)cc2s1)C(=O)N[C@H](CNC(=O)c1ncc[nH]1)C1CCCCC1 [Example 268]
IC50 [6, 8]: 1210 nM

Structure (SMILES): CCC(=O)N[C@@H](Cc1nc2ccc(Cl)cc2s1)C(=O)N[C@H](C(=O)N[C@@H](CCCCN)C(=O)N[C@@H]1CCOc2ccccc21)C1CCOCC1 [Example 37]
IC50 [6, 8]: 49 nM

Structure (SMILES): CCC(=O)N[C@@H](Cc1nc2ccc(Cl)cc2s1)C(=O)NCCN [Example 235]
IC50 [6, 9]: > 10000 nM

Structure (SMILES): CCC(=O)N[C@@H](Cc1nc2ccc(CC)cc2s1)C(=O)N[C@H](C(=O)N[C@@H](CC1CCN(C)CC1)C(=O)N[C@@H]1CCOc2ccccc21)C1CCOCC1 [Example 193]
IC50 [6, 8]: 171 nM

The next lines start with the values.

IC50 [6, 8]: 127 nM
Structure (SMILES): CCC(=O)N[C@@H](Cc1nc2ccc(C(C)C)cc2s1)C(=O)N[C@H](CO)C1CCCCC1 [Example 81, (S)—N—((S)-1-cyclohexyl-2-hydroxyethyl)-3-(6-isopropylbenzo[d]thiazol-2-yl)-2-propionamidopropanamide]

IC50 [6, 9]: > 10000 nM
Structure (SMILES): CC[C@H](C)[C@H](NC(=O)[C@H](Cc1ccc2ccccc2c1)NC(=O)[C@H](C)O)C(=O)N[C@@H](CCCCN)C(=O)N[C@@H](CC(C)C)C(N)=O [Example 168] (H-[Lac][2Nal]IKL-NH2)

IC50 [6, 8]: 278 nM
Structure (SMILES): CNC(=O)N[C@@H](Cc1nc2ccc(Cl)cc2s1)C(=O)N[C@H](C(=O)N[C@@H](CCCCN)C(=O)N[C@@H]1CCOc2ccccc21)C1CCOCC1 [Example 209]

IC50 [6, 8]: 913 nM
Structure (SMILES): CCC(=O)N[C@@H](Cc1ccc2ccccc2c1)C(=O)N[C@H](C(=O)N[C@@H](CCCCN)C(=O)N[C@@H]1CCc2ccccc21)[C@@H](C)CC [Example 13]

IC50 [6, 9]: > 10000 nM
Structure (SMILES): CCC(=O)N[C@H](CNC(=O)[C@H]1CCCCN1)Cc1nc2ccc(C(C)C)cc2s1 [Example 270]

IC50 [6, 8]: 93.6 nM
Structure (SMILES): CCC(=O)N[C@@H](Cc1nc2ccc(C(C)C)cc2s1)C(=O)N[C@H](CN(C)C)C1CCCCC1 [Example 79, (S)—N—((S)-1-cyclohexyl-2-(dimethylamino)ethyl)-3-(6-isopropylbenzo[d]thiazol-2-yl)-2-propionamidopropanamide]

IC50 [6, 8]: 63.1 nM
Structure (SMILES): CCC(=O)N[C@@H](Cc1nc2ccc(C(C)C)cc2s1)C(=O)N[C@H](CNC(=O)CCCN1CCOCC1)C1CCCCC1 [Example 59, N—((S)-2-cyclohexyl-2-((S)-3-(6-isopropylbenzo[d]thiazol-2-yl)-2-propionamidopropanamido)ethyl)-4-morpholinobutanamide]
